By viability is commonly meant a read-out of living cells in per cent, often relative to untreated cells.

The data set is described as follows: in vitro. Conditions: human, hela cells, % viability.

Consider `Cc1cc(=O)n2c(C(=O)Nc3cccc(C(=O)O)c3)c(C(=O)Nc3cccc(C)c3C)sc2n1` [CBK297545], for which the viability at 28.5 h, 10 µM was 101%. Regarding `Cc1nc2c(c(=O)[nH]1)CN(Cc1cn(C(C)C)c3ccccc13)CC2` [CBK284014], the viability at 28.5 h, 10 µM worked out at 93.5%. Turning to `Cc1ccc2[nH]c(CNC(=O)c3cn[nH]c3C3CCCCN3)nc2c1` (stereo not drawn) [CBK304741], the viability at 28.5 h, 10 µM worked out at 100%.

For `CCn1cc(S(=O)(=O)N2CCN(c3cccc(C(F)(F)F)c3)CC2)cn1` [CBK270328], the viability at 28.5 h, 10 µM came out at 93.6%. Take `O=C(O)c1cc(NC(=O)c2cccc(F)c2)cc(NC(=O)c2cccc(F)c2)c1` [CBK262800]: the viability at 28.5 h, 10 µM came out at 90.6%. Same read-out and setting: the result for `COc1ccccc1Nc1nc(N)nc(CN2CCc3ccccc3C2)n1` [CBK266635] reads 95.1%; that for `COCCNCc1cccc(OCc2ccccc2)c1` [CBK269864C], 87.9%; that for `O=C1CC(NCc2ccccc2)C(=O)N1c1ccc(N2C(=O)CC(NCc3ccccc3)C2=O)cc1` (stereo not drawn) [CBK263963], 88.6%.

Take `COc1ccc(C(NC(=O)C2CCN(S(C)(=O)=O)CC2)c2ccccc2C)cn1` (stereo not drawn) [CBK059738]: the viability at 28.5 h, 10 µM was 104%. As for `CCOC(=O)C1CCN(CCC(=O)Nc2ccc(F)c(F)c2)CC1` [CBK264252], the viability at 28.5 h, 10 µM is 112%.

Consider `CC(=O)Nc1cc(NC(C)=O)c(C)c(C(=O)O)c1` [CBK286623], for which the viability at 28.5 h, 10 µM is 88.6%.

Regarding `COc1cc2c(cc1NC(=O)CSc1nc3ccccc3o1)oc1ccccc12` [CBK265154], the viability at 28.5 h, 10 µM worked out at 105%.

For the compound `Nc1ncc(-c2ccc(C(=O)N3CCOCC3)cc2)nc1C(=O)NCc1ccc(O)cc1` [CBK149161], the viability at 28.5 h, 10 µM stood at 109%. Take `CC(C)NC(=O)C1(Cc2ccc(-c3ccccc3)cc2)CCN(C(=O)C2CCC2)CC1` [CBK285750]: the viability at 28.5 h, 10 µM came out at 102%. The same measure, in the same setting: the figure for `Cc1ccc(N2C(=O)CSC23C(=O)Nc2ccc(Br)cc23)cc1` (stereo not drawn) [CBK093453] is 84.4%; for `COc1ccc(Cc2nc(C(C)(C)C)cs2)cc1` [CBK021497B] it is 85%; for `Cc1cc(S(=O)(=O)N(CCC#N)Cc2ccccc2)c(C)cc1Cl` [CBK043461] it is 90.8%. Same read-out and setting: the result for `CCC(NC(=O)CCOC)c1cn2cccnc2n1` (stereo not drawn) [CBK306560] reads 88.2%; that for `CN1CCC(N2CCN(C(=O)NCCCN3CCCC3=O)CC2)CC1` [CBK156105], 102%.

Turning to `CCOC(=O)C1(Cc2cc(-c3ccc(F)cc3)no2)CCNCC1` [CBK284581], the viability at 28.5 h, 10 µM was 109%. Take `CCOC(=O)c1cccc(-n2ncc(-c3ccc(F)cc3)n2)c1` [CBK112908]: the viability at 28.5 h, 10 µM came out at 94.1%. With `Cc1cc2c(cc3c(=O)n(CC(=O)NC4CCC4)nc(C)n32)s1` [CBK284118], the viability at 28.5 h, 10 µM came out at 107%. Take `Nc1ncnc(NCCc2ccccc2)n1` [CBK262701]: the viability at 28.5 h, 10 µM was 85%. For `CCN(CC)C(=O)c1ccsc1NS(=O)(=O)c1ccc(Br)cc1` [CBK042318], the viability at 28.5 h, 10 µM was found to be 93.2%.

Take `Cc1cc(NC(=O)CSc2ccc3nnc(-c4ccccc4)n3n2)no1` [CBK287518]: the viability at 28.5 h, 10 µM was 94.8%.

Turning to `Oc1cc(C(F)(F)F)nc(NCc2ccncc2)n1` [CBK003563], the viability at 28.5 h, 10 µM stood at 85.5%. For `CCN1CC2(CCN(Cc3cc(OC)c(OC)c(OC)c3)CC2)c2ccccc21` [CBK131477], the viability at 28.5 h, 10 µM worked out at 93.2%. As to `Cc1ccc2[nH]c3c(c2c1)CCNC31CCN(C(=O)CC(C)CC(=O)O)CC1` (stereo not drawn) [CBK047196], the viability at 28.5 h, 10 µM stood at 109%. On to `CN1CCN(c2nc(-c3ccc4c(c3)CCC(=O)N4)cs2)CC1` [CBK304319C], for which the viability at 28.5 h, 10 µM came out at 80.6%. Consider `CC(C)Cc1ccc(C(C)c2nc3ccccc3[nH]2)cc1` (stereo not drawn) [CBK261484], for which the viability at 28.5 h, 10 µM was determined as 89.7%. With `CCCNC(=O)CN1CCC(NC(=O)Cn2cc(Br)ccc2=O)CC1` [CBK305665], the viability at 28.5 h, 10 µM stood at 94%. In the case of `O=C(CSc1nnc(-c2ccccc2)[nH]1)c1cccc([N+](=O)[O-])c1` [CBK263287], the viability at 28.5 h, 10 µM stood at 91%.

With `COc1ncc(-c2nccnc2N2CCCC2CO)c(OC)n1` (stereo not drawn) [CBK036638], the viability at 28.5 h, 10 µM was determined as 92.8%. Still for that read-out and setting: the result for `C/C(=C\C(=O)NC1CC(C)(C)NC(C)(C)C1)NC1CC(C)(C)NC(C)(C)C1` [CBK261982] reads 113%; that for `CC1CCCCN1CCNC(=O)c1ccc(Cn2c(=S)[nH]c3ccccc3c2=O)cc1` (stereo not drawn) [CBK265674], 96%; that for `CC(=O)N1CCC(c2nc(Cc3cccs3)no2)C1` (stereo not drawn) [CBK282998], 108%. With `CC(C)NC(=S)N1CC[C@@]2(NC(N)=O)N=C(N)O[C@H]2C1` [CBK010049], the viability at 28.5 h, 10 µM is 93.1%.

`CC(C)N(CC(N)=O)Cc1nc(-c2cccc(C(F)(F)F)c2)no1` [CBK306287]: the viability at 28.5 h, 10 µM was 89.8%. Turning to `O=[N+]([O-])c1ccccc1/C=C/CN1CCN(C/C=C/c2ccccc2)CC1` [CBK261864], the viability at 28.5 h, 10 µM turned out to be 93%. Regarding `Cn1c(C(C)(C)C)cs/c1=N\NS(=O)(=O)c1ccccc1` [CBK006830B], the viability at 28.5 h, 10 µM was found to be 110%. As for `Sc1nnc(-c2cccc(Br)c2)o1` [CBK288432], the viability at 28.5 h, 10 µM is 101%.

Turning to `COCC(=O)NC1CC(C)(C)Cc2c1cnn2-c1ccc(C)cc1` (stereo not drawn) [CBK282866], the viability at 28.5 h, 10 µM stood at 118%. With `CC(=O)Nc1ccc(/N=C/c2ccc(Cl)cc2)cc1` [CBK015166], the viability at 28.5 h, 10 µM was 92.3%. For `CN(C)C(=O)CCCN1C(=O)CC2(C1=O)C(=O)N(C)c1ccc(F)cc12` (stereo not drawn) [CBK075380], the viability at 28.5 h, 10 µM came to 103%.

Turning to `O=C1COc2ccccc2CCCCC2(CCCN(CC(=O)N3CCCC3)C2)CN1` (stereo not drawn) [CBK292009], the viability at 28.5 h, 10 µM was found to be 105%. For `COc1ccc(NC(=O)CCC(=O)N2CCC(C(=O)O)CC2)cc1` [CBK286588], the viability at 28.5 h, 10 µM is 100%. `Cc1ccc2c(c1)c(=O)cc(C(F)(F)F)n2C[C@H]1CCCN1` [CBK285303]: the viability at 28.5 h, 10 µM turned out to be 36.2%.

As to `O=C(NC1(c2ccc(F)cc2)CCCC1)c1cnccn1` [CBK283595], the viability at 28.5 h, 10 µM stood at 85.1%. On to `CN(C)c1ncc(-c2ccccc2)c(C2CCCN2Cc2ccc3ncccc3c2)n1` (stereo not drawn) [CBK286256], for which the viability at 28.5 h, 10 µM is 77.6%. For the compound `O=S(=O)(NC1CCN(Cc2ccccc2)CC1)c1ccc(-c2ccon2)s1` [CBK062038], the viability at 28.5 h, 10 µM came to 93.5%. With `O=C(NCCc1cc2ccccc2[nH]1)Nc1cccc2ccccc12` [CBK269246], the viability at 28.5 h, 10 µM amounted to 106%. As to `CCn1nc(C)c(-c2cncn2CCCN2CCCCC2)c1C` [CBK281769], the viability at 28.5 h, 10 µM came to 97.6%. In the case of `CC1(C)CC(=O)C(=CNCCC(c2ccccc2)c2ccccc2)C(=O)C1` [CBK262057], the viability at 28.5 h, 10 µM turned out to be 114%. Turning to `CSc1ncc(Cl)c(C(=O)Nc2sc3c(c2C(=O)NCc2ccccc2)CCCC3)n1` [CBK268976], the viability at 28.5 h, 10 µM is 99.5%. Take `O=C(CN1CCC(c2nc3ccccc3[nH]2)CC1)Nc1ccc(F)cc1` [CBK287720]: the viability at 28.5 h, 10 µM is 90%. On the same count and under the same terms, the result for `CC(=O)N/C(=C\c1ccccc1)C(=O)NC(C)C(=O)O` (stereo not drawn) [CBK261491] reads 99.1%; that for `O=C(Nc1cccc(C(F)(F)F)c1)Nc1cc(N2CCNCC2)c2occc2c1` [CBK061746C], 91.4%. With `COC(=O)c1sccc1NS(=O)(=O)c1ccc(C(F)(F)F)cc1[N+](=O)[O-]` [CBK004510], the viability at 28.5 h, 10 µM is 92.9%. As to `Cn1c(-c2cc(=O)c(C(=O)O)c[nH]2)n[nH]c1=O` [CBK012603], the viability at 28.5 h, 10 µM was 79.6%. Consider `CN(C)CC1CCCCN1C(=O)C1CC2C=CC1C21CC1` (stereo not drawn) [CBK282085], for which the viability at 28.5 h, 10 µM is 86.6%. As to `CC(=O)Nc1ccc(-c2cccc(COC3CCN(C(=O)Cc4ccc(C#N)cc4)CC3)c2)cc1` [CBK149495], the viability at 28.5 h, 10 µM worked out at 101%. Still for that read-out and setting: the figure for `CC(=O)Nc1ccc(S(=O)(=O)N2CCN(Cc3ccc([N+](=O)[O-])cc3)CC2)cc1` [CBK264231G] is 94.3%; for `O=C1CC(N2CCN(Cc3ccc4c(c3)OCO4)CC2)C(=O)N1c1ccc(Cl)cc1` (stereo not drawn) [CBK074402] it is 103%.

Turning to `COc1ccccc1N1CC(C(=O)Nc2ccc(C(=O)O)cc2)CC1=O` (stereo not drawn) [CBK269606], the viability at 28.5 h, 10 µM was 84.9%. As to `O=C1NC(=O)C(c2ccccc2)(c2ccccn2)N1` (stereo not drawn) [CBK288455], the viability at 28.5 h, 10 µM stood at 97%.

As to `CS(=O)(=O)c1ccc(-c2ccc3c(c2)COC2(CCN(C(=O)CCCc4ccc(F)cc4)CC2)O3)cc1` [CBK160586], the viability at 28.5 h, 10 µM (bulk resorufin, single well) was found to be 92.5%. For `Cc1noc(C)c1C(=O)Nc1ccc(N2CCOCC2)c2nonc12` [CBK268125], the viability at 28.5 h, 10 µM came to 94.7%. For `C=CCNC(=O)N[C@H]1[C@H](O)[C@@H](Oc2ccccc2)[C@@H]2OC[C@H]1O2` [CBK288812], the viability at 28.5 h, 10 µM amounted to 90.5%. With `Cc1nc(CCNCc2c(C(C)C)nn(C)c2N(C)C)cs1` [CBK304002], the viability at 28.5 h, 10 µM was determined as 98.8%. In the case of `CC(C)COC(=O)N1CCC(N(C)Cc2ccc(-c3ccc(S(C)(=O)=O)cc3)nc2)CC1` [CBK165259T], the viability at 28.5 h, 10 µM worked out at 90.4%. Turning to `Cn1nc(-c2ccc(S(=O)(=O)Nc3cccc(C(=O)O)c3)s2)cc1C(F)(F)F` [CBK155080], the viability at 28.5 h, 10 µM is 86.9%. In the case of `CC(=O)Nc1ccc(S(=O)(=O)Nc2ccc(S(=O)(=O)Nc3cc(C)ccc3C)cc2)cc1` [CBK264745], the viability at 28.5 h, 10 µM came out at 98.4%. Take `CC(=O)N1CCC2(CCCC[C@H]3CN(CC(=O)N(C)C)CC[C@@H]3NC(=O)CNC2=O)CC1` [CBK292163]: the viability at 28.5 h, 10 µM amounted to 94.6%. As for `OCCCN1CCC(Oc2cncc(OCc3cccnc3)n2)C1` (stereo not drawn) [CBK084465], the viability at 28.5 h, 10 µM is 91.7%. On to `Cc1cc(OCC(=O)NN2CCN(C)CC2)ccc1[N+](=O)[O-]` [CBK268136], for which the viability at 28.5 h, 10 µM is 99.8%. With `O=C(NCCCn1cccn1)N1CCCN(Cc2ccc(Cl)cc2)CC1` [CBK305447], the viability at 28.5 h, 10 µM was 116%. In the case of `Cc1ccc(C(=O)Nc2cccc(-c3cn4cccnc4n3)c2)cc1` [CBK287503], the viability at 28.5 h, 10 µM is 93.8%. For `COC(=O)c1ccc2c(=O)n(CC(C)C)c(SC)nc2c1` [CBK306042], the viability at 28.5 h, 10 µM was determined as 81.3%.

The values above are taken from paper PMC12040169 (PLOS Biology, 2025).
